The source of these data is the supplement of paper PMC12592484.

Common to all, as to test: drug sensitivity score (DSS2, normalised partial AUC of dose-response, 72 h CellTiter-Glo viability) (DSS (dimensionless)); higher = more sensitive (stronger growth inhibition / cytotoxicity); extreme values may be limits of the assay
For orientation: In ATP-based viability assays light output follows the ATP content of the culture.

One test concerns 22Rv1. The gist of the method:
(§1)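 Five doses spanning a 10,000-fold range were pre-dispensed into 384-well plates, into which low-passage primary prostate cancer-associated fibroblasts, PF179T, WPMY-1, LNCaP and 22Rv1 cells were seeded. After 72 h, CellTiter-Glo 2.0 luminescence measured viability, scaled to vehicle and positive-control wells. Higher values of the drug sensitivity score, a BREEZE-computed partial area under the fitted logistic dose–response curve divided by the log of the upper asymptote, mean greater sensitivity.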

The test system of a further test is CAF#1 (primary prostate cancer-associated fibroblasts of myCAF-like type). An outline of the steps:
as §1

For another test, the system named is CAF#2 (primary prostate cancer-associated fibroblasts of iCAF-like type). An outline of the steps:
as §1

For a further test, the system named is CAF#3 (primary prostate cancer-associated fibroblasts of myCAF-like type). An outline of the steps:
as §1

In another test the test system is CAF#4 (primary prostate cancer-associated fibroblasts of iCAF-like type). The gist of the method:
as §1

The subject of another test is CAF#5 (primary prostate cancer-associated fibroblasts of myCAF-like type). An outline of the steps:
as §1

The next test relates to CAF#6 (primary prostate cancer-associated fibroblasts of iCAF-like type). An outline of the steps:
as §1

The subject of the next test is CAF#7 (primary prostate cancer-associated fibroblasts of myCAF-like type). The gist of the method:
as §1

The subject of a further test is LNCAP. The gist of the method: as §1
Another test concerns PF179T. The gist of the method:
as §1

Another test has as its system WPMY-1. The gist of the method: as §1

Each structure is given as a SMILES string.

`CCn1c(-c2nonc2N)nc2cnc(Oc3cccc(NC(=O)c4ccc(OCCN5CCOCC5)cc4)c3)cc21` (tested concentration range 1-10000 nM): the drug sensitivity score was determined as 4.7 in the test with 22Rv1; 3.2 in the test on CAF#1; 3.3 in the test on CAF#2; 0.2 with CAF#3; 0.6 in the test on CAF#4; 1.2 with CAF#5. For the same molecule, the drug sensitivity score with CAF#6 was determined as 2.8; with CAF#7 it was 4.7; with LNCAP, 8.1; in the test with PF179T it was 0.9; with WPMY-1, 6.8.
As for `CN(C)CC#Cc1ccc(OCCCc2sc(N3CCc4cccc(C(=O)Nc5nc6ccccc6s5)c4C3)nc2C(=O)O)c(F)c1` (tested concentration range 1-10000 nM), the drug sensitivity score in the test with 22Rv1 worked out at 0; with CAF#1 it was 2.7; in the test on CAF#2 it was 2.3; with CAF#3 it was 0.2; in the test with CAF#4, 14.4; in the test on CAF#5 it was 3.2. Besides, the drug sensitivity score in the test on CAF#6 was 5.6; in the test with CAF#7 it was 4.1; in the test with LNCAP, 6.1; with PF179T, 0; in the test on WPMY-1, 1.4.
For the molecule `CN1CCN(C2CCC(n3cc(-c4ccc(Oc5ccccc5)cc4)c4c(N)ncnc43)CC2)CC1` (stereo not drawn) (tested concentration range 1-10000 nM), the drug sensitivity score came out at 9.1 in the test on 22Rv1; 12.2 with CAF#1; 14.6 with CAF#2; 11.2 with CAF#3; 13.6 in the test on CAF#4; 11.5 in the test on CAF#5. The drug sensitivity score is 11.7 in the test with CAF#6; 16.6 in the test on CAF#7; 8.3 in the test with LNCAP; 9.3 in the test with PF179T; 10.1 in the test with WPMY-1.
Turning to `CNc1nc(-c2ccc3c(N)n[nH]c3c2)cc(N2C[C@@H](C(=O)NC3CCCCC3)CC[C@H]2C)n1` (tested concentration range 1-10000 nM), the drug sensitivity score with 22Rv1 amounted to 6.4; in the test on CAF#1, 4; with CAF#2, 1.1; in the test with CAF#3, 6.6; in the test on CAF#4 it was 2.4; in the test with CAF#5 it was 5.8. Moreover, the drug sensitivity score with CAF#6 was found to be 4; with CAF#7, 3.8; with LNCAP, 7.5; in the test on PF179T, 0; in the test with WPMY-1, 1.4.
For `CNc1ncc2cc(-c3cc(NC(=O)NCCC(C)(C)C)c(F)cc3C)c(C)nc2n1` (tested concentration range 1-10000 nM), the drug sensitivity score in the test with 22Rv1 worked out at 8.5; in the test on CAF#1, 7.4; in the test on CAF#2, 11; with CAF#3 it was 1.6; in the test on CAF#4, 9.2; in the test with CAF#5 it was 7.2. Besides, the drug sensitivity score in the test with CAF#6 was found to be 6.3; in the test with CAF#7, 8; in the test on LNCAP, 10.4; in the test on PF179T it was 6.7; in the test on WPMY-1 it was 5.6.
`COc1ccc(Cn2ccc3ccc(C(=O)NO)cc32)cc1` (tested concentration range 1-10000 nM): the drug sensitivity score in the test on 22Rv1 turned out to be 2.8; in the test with CAF#1, 2.8; with CAF#2 it was 3.1; with CAF#3 it was 2.9; with CAF#4, 1.4; in the test on CAF#5, 1.4. For the same molecule, the drug sensitivity score in the test with CAF#6 was 4.1; in the test on CAF#7, 4; in the test on LNCAP it was 5.5; in the test on PF179T it was 4.8; with WPMY-1 it was 2.8.
Consider `Cc1c(Cn2c(C)nc3c(C(=O)O)cc(N4CCOCC4)cc32)cccc1C(F)(F)F` (tested concentration range 1-10000 nM), for which the drug sensitivity score with 22Rv1 amounted to 0; in the test on CAF#1, 2.6; in the test with CAF#2, 0.4; in the test on CAF#3 it was 6.2; in the test on CAF#4, 1.3; in the test with CAF#5 it was 0.1. Also, the drug sensitivity score worked out at 2.1 with CAF#6; 5.1 with CAF#7; 12.4 with LNCAP; 2.1 in the test on PF179T; 0 with WPMY-1.
On to `Cn1cc(-c2ccc(F)c(C(F)(F)F)c2)nc1C1CCN(c2ncnc3[nH]ncc23)CC1` (tested concentration range 1-10000 nM), for which the drug sensitivity score with 22Rv1 was determined as 2.3; in the test on CAF#1 it was 1.3; in the test on CAF#2, 1; in the test with CAF#3, 0; in the test with CAF#4, 1.4; in the test on CAF#5, 1.5. Further, the drug sensitivity score in the test on CAF#6 stood at 0.5; in the test with CAF#7, 0.4; with LNCAP, 7.1; with PF179T, 0; with WPMY-1, 0.
Regarding `N#Cc1ccc(COC[C@H]2O[C@@H](n3c(NCc4ccc(Cl)c(Cl)c4)nc4c(N)ncnc43)[C@H](O)[C@@H]2O)cc1` (tested concentration range 1-10000 nM), the drug sensitivity score with 22Rv1 is 6.9; in the test with CAF#1, 3.7; in the test on CAF#2, 5.7; in the test with CAF#3, 0.6; with CAF#4, 5.7; in the test on CAF#5, 4.7. Moreover, the drug sensitivity score with CAF#6 stood at 1.8; in the test with CAF#7 it was 4.5; in the test with LNCAP it was 5; in the test with PF179T, 4.4; in the test on WPMY-1 it was 1.9.
`Nc1nccc(-c2c(-c3ccc(F)cc3)ncn2C2CCCCC2)n1` (tested concentration range 1-10000 nM): the drug sensitivity score came out at 6.1 in the test with 22Rv1; 0 with CAF#1; 0.6 in the test with CAF#2; 2.1 in the test with CAF#3; 0.1 in the test with CAF#4; 0 in the test with CAF#5. Also, the drug sensitivity score in the test with CAF#6 came to 0; with CAF#7, 0; with LNCAP, 4.6; in the test with PF179T it was 0; with WPMY-1 it was 0.
Take `Nc1ncnc2c1c(COc1cccc(Cl)c1)nn2C1CCOCC1` (tested concentration range 1-10000 nM): the drug sensitivity score was 0 in the test with 22Rv1; 2.5 in the test with CAF#1; 2.1 in the test with CAF#2; 2.8 in the test on CAF#3; 0 with CAF#4; 1.8 in the test on CAF#5. In addition, the drug sensitivity score with CAF#6 stood at 0.6; in the test with CAF#7, 1; with LNCAP, 2.3; in the test on PF179T, 0; in the test on WPMY-1 it was 0.
Turning to `O=C(O)c1ccc(-c2c[nH]c3ncc(-c4ccccc4)cc23)cc1C1CCCC1` (tested concentration range 1-10000 nM), the drug sensitivity score in the test with 22Rv1 came to 0; in the test with CAF#1, 0; in the test on CAF#2 it was 2.3; in the test on CAF#3 it was 0; in the test with CAF#4 it was 0; in the test on CAF#5 it was 0.8. Further, the drug sensitivity score in the test with CAF#6 is 0; in the test with CAF#7, 0; with LNCAP it was 0; in the test on PF179T it was 0.1; with WPMY-1, 2.4.
In the case of `O=c1[nH]c(C2CCCN2)nc2c1oc1ccc(Cl)cc12` (stereo not drawn) (tested concentration range 1-10000 nM), the drug sensitivity score came to 0.6 in the test on 22Rv1; 0 in the test with CAF#1; 0 in the test with CAF#2; 1.6 in the test on CAF#3; 0 with CAF#4; 0 with CAF#5. Further, the drug sensitivity score in the test with CAF#6 turned out to be 0; in the test on CAF#7, 0; in the test with LNCAP it was 2.7; in the test on PF179T, 0; in the test on WPMY-1, 3.3.
With `CC1(C)OCCn2c1nc1c(N3CCOCC3)nc(-c3cnc(N)nc3)nc12` [Paxalisib] (tested concentration range 1-10000 nM), the drug sensitivity score in the test on 22Rv1 worked out at 18.1; in the test on CAF#1 it was 16; in the test on CAF#4, 13; with CAF#5 it was 18.3; in the test on LNCAP, 13.5.
